Usually melting point stands for the temperature, or range, at which the solid turns liquid.

Here are results for 6 molecules from patent publication US7229984B2, “Dibenzoxazepinone derivatives and uses thereof” (Roche Palo Alto LLC, priority 2004, dated 2007).

Structures can show the parent of a compound that is named as a salt.

For series [1], the target named is T1, recombinant human 5-HT2A receptor (Homo sapiens, UniProt P28223).
T1 construct: expressed in transfected cells; membranes
In words: Radioligand binding, [3H]Ketanserin competition in CHO-K1 cell membranes. Conditions: [3H]Ketanserin displacement, pH 7.4, 32° C., approximate value, read-out: pKi for 5-HT2A (converted). As to the method: (§1) The binding activity of compounds of this invention in vitro was determined as follows. Duplicate determinations of 5-HT6 ligand affinity were made by competing for binding of [^3H]LSD in cell membranes derived from HEK293 cells stably expressing recombinant human 5-HT6 receptor. Duplicate determinations of 5-HT2A ligand affinity were made by competing for binding of [^3H]Ketanserin (3-(2-(4-(4-fluorobenzoyl)piperidinol)ethyl)-2,4(1H,3H)-quinazolinedione) in cell membranes derived from CHO-K1 cells stably expressing recombinant human 5-HT2A receptor. Membranes were prepared from HEK 293 cell lines by the method described by Monsma et al., Molecular Pharmacology, Vol. 43 pp. 320–327 (1993), and from CHO-K1cell lines as described by Bonhaus et al., Br J Pharmacol. Jun; 115(4):622–8 (1995).
(§2) For estimation of affinity at the 5-HT6 receptor, all determinations were made in assay buffer containing 50 mM Tris-HCl, 10 mM MgSO4, 0.5 mM EDTA, 1 mM ascorbic acid, pH 7.4 at 37° C., in a 250 microliter reaction volume. […]
(§3) Assay tubes containing [^3H] […] Bound[^3H]LSD or [^3H]Ketanserin were determined as radioactive counts per minute using Packard TopCount.
(§4) Displacement of [^3H]LSD or [^3H]Ketanserin from the binding sites was quantified by fitting concentration-binding data to a 4-parameter logistic equation: […]

In series [2] the target is T2, recombinant human 5-HT6 receptor (Homo sapiens, UniProt P50406).
T2 construct: expressed in transfected cells; membranes
T2 sequence (P50406 whole entry): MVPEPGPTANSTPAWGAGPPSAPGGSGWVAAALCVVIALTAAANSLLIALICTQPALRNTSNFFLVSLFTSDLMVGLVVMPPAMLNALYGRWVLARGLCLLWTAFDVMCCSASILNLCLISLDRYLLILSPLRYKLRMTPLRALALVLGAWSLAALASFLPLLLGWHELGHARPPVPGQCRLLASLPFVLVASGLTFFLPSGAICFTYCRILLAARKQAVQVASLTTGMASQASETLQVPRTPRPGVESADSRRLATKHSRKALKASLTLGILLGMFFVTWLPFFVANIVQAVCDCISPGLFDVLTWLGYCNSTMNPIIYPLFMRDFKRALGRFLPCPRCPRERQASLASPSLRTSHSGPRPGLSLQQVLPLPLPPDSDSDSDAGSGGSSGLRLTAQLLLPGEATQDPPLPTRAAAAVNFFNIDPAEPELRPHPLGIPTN
In words: Radioligand binding, [3H]LSD competition in HEK293 cell membranes. The settings on record: [3H]LSD displacement, pH 7.4, 37° C., approximate value, read-out: pKi for 5-HT6 (converted). Here is the method: as §1, §2, §3, §4

T1 sequence (P28223 whole entry): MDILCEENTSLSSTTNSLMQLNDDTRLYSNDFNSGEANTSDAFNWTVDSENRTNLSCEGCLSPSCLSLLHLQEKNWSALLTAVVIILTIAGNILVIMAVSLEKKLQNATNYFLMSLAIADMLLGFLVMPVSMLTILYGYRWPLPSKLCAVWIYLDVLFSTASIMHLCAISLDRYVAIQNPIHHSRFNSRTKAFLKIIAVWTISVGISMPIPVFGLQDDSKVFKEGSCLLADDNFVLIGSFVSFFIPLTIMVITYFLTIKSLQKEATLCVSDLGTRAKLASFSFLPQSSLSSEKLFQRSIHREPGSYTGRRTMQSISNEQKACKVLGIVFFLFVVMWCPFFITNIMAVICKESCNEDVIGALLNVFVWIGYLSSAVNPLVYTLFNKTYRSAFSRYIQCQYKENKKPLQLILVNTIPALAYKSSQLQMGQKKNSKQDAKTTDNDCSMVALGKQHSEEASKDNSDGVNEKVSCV

In turn, `O=C1c2cccc(N3CCNCC3)c2Oc2ccccc2N1Cc1ccccc1` (as salt: HCl) [Compound 1, 10-Benzyl-4-piperazin-1-yl-10H-dibenzo[b,f][1,4]oxazepin-11-one] displayed a melting point of 198 to 199 °C.
Still for that read-out and setting: next, `O=C1c2cccc(N3CCNCC3)c2Nc2ccccc2N1Cc1ccccc1` (as salt: HCl) [Compound 13, 10-Benzyl-4-piperazin-1-yl-5,10-dihydro-dibenzo[b,e][1,4]diazepin-11-one]: 322 to 323 °C (dec.).
On the same count and under the same terms, next, `O=C1c2cccc(N3CCNCC3)c2Sc2ccccc2N1Cc1ccccc1` (as salt: HCl) [Compound 20, 10-Benzyl-4-piperazin-1-yl-10H-dibenzo[b,f][1,4]thiazepin-11-one]: 301 to 302 °C.
For `O=C1c2cccc(N3CCNCC3)c2Oc2c(F)cccc2N1CCc1ccccc1` [Compound 26, 6-Fluoro-10-phenethyl-4-piperazin-1-yl-10H-dibenzo[b,f][1,4]oxazepin-11-one,hydrochloride], in series [1], the Ki was around 1.32 nM.
Take `O=C1c2cccc(N3CCNCC3)c2Oc2ccc(F)cc2N1Cc1cccc(C(F)(F)F)c1` [Compound 28, 8-Fluoro-4-piperazin-1-yl-10-(3-trifluoromethyl-benzyl)-10H-dibenzo[b,f][1,4]oxazepin-11-one]: the Ki in series [2] was around 0.282 nM.
`O=C1c2cccc(N3CCNCC3)c2Oc2ccccc2N1Cc1c[nH]c2ccccc12` [Compound 37, 10-(1H-Indol-3-ylmethyl)-4-piperazin-1-yl-10H-dibenzo[b,f][1,4]oxazepin-11-one] came in with a melting point of 98 to 99 °C.
